Numbers after ± are expanded uncertainties.
Columns and labels:
[1] = xn = mol fraction of the nth substance listed; conditions: Liquid, x2 = 0; for viscosity: Capillary tube (Ostwald / Ubbelohde) method; for mass density: Siemens Coriolis flowmeter
[2] = Liquid; for viscosity: Capillary tube (Ostwald / Ubbelohde) method; for mass density: Siemens Coriolis flowmeter

CCCCCCC [heptane] + CCCCCCCCCC(=O)OC
[1]
Conditions	mass density, 298.15 K [kg/m3]	mass density, 308.15 K [kg/m3]	mass density, 318.15 K [kg/m3]	viscosity, 298.15 K [mPa·s]	viscosity, 308.15 K [mPa·s]	viscosity, 318.15 K [mPa·s]
100 kPa	680 ± 2	670 ± 2	662 ± 2	0.404 ± 0.013	0.367 ± 0.011	0.33 ± 0.01
3000 kPa	683 ± 2	674 ± 2	666 ± 2	0.415 ± 0.013	0.371 ± 0.012	0.339 ± 0.011
6000 kPa	686 ± 2	677 ± 2	669 ± 2	0.42 ± 0.013	0.385 ± 0.012	0.347 ± 0.011
9000 kPa	689 ± 2	680 ± 2	672 ± 2	0.432 ± 0.013	0.396 ± 0.012	0.359 ± 0.011
12000 kPa	691 ± 2	683 ± 2	675 ± 2	0.446 ± 0.014	0.404 ± 0.013	0.369 ± 0.012
15000 kPa	694 ± 2	685 ± 2	678 ± 2	0.454 ± 0.014	0.411 ± 0.013	0.374 ± 0.012

CCCCCCCCCC(=O)OC [methyl decanoate]
[2]
Conditions	mass density, 298.15 K [kg/m3]	mass density, 308.15 K [kg/m3]	mass density, 318.15 K [kg/m3]	viscosity, 298.15 K [mPa·s]	viscosity, 308.15 K [mPa·s]	viscosity, 318.15 K [mPa·s]
100 kPa	868 ± 2	860 ± 2	853 ± 2	1.934 ± 0.06	1.628 ± 0.05	1.38 ± 0.043
3000 kPa	870 ± 2	–	854 ± 2	1.992 ± 0.061	–	1.417 ± 0.044
3010 kPa	–	862 ± 2	–	–	1.675 ± 0.052	–
6000 kPa	872 ± 2	864 ± 2	856 ± 2	2.058 ± 0.064	1.727 ± 0.053	1.462 ± 0.045
9000 kPa	874 ± 2	866 ± 2	859 ± 2	2.123 ± 0.066	1.779 ± 0.055	1.491 ± 0.046
12000 kPa	877 ± 2	869 ± 2	861 ± 2	2.209 ± 0.068	1.835 ± 0.057	1.534 ± 0.047
15000 kPa	878 ± 2	871 ± 2	863 ± 2	2.272 ± 0.07	1.888 ± 0.058	1.578 ± 0.049

CCCCCCC [heptane]
[2]
Conditions	mass density, 298.15 K [kg/m3]	mass density, 308.15 K [kg/m3]	mass density, 318.15 K [kg/m3]	viscosity, 298.15 K [mPa·s]	viscosity, 308.15 K [mPa·s]	viscosity, 318.15 K [mPa·s]
100 kPa	680 ± 2	670 ± 2	662 ± 2	0.404 ± 0.013	0.367 ± 0.011	0.33 ± 0.01
3000 kPa	683 ± 2	674 ± 2	666 ± 2	0.415 ± 0.013	0.371 ± 0.012	0.339 ± 0.011
6000 kPa	686 ± 2	677 ± 2	669 ± 2	0.42 ± 0.013	0.385 ± 0.012	0.347 ± 0.011
9000 kPa	689 ± 2	680 ± 2	672 ± 2	0.432 ± 0.013	0.396 ± 0.012	0.359 ± 0.011
12000 kPa	691 ± 2	683 ± 2	675 ± 2	0.446 ± 0.014	0.404 ± 0.013	0.369 ± 0.012
15000 kPa	694 ± 2	685 ± 2	678 ± 2	0.454 ± 0.014	0.411 ± 0.013	0.374 ± 0.012
